The test system of experiment [1] is MV4-11 human acute myeloid leukemia cell with FLT3-ITD mutation. The experiment can be described thus: MV4-11 cell proliferation assay (CellTiter-96). In kind it is cell-based. To be noted: Cytotoxicity, MV4-11 cells, 72 hours. In outline:
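Growth inhibition read as absorbance at 490 nm after 4 hours with CellTiter96 AQueous One reagent. Before that, FLT3-ITD-dependent MV4-11 cells (6500 cells/well, overnight at 37° C., 5% CO2) received a rising compound concentration series for 72 hours.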

In experiment [2] the test system is CSF-1-dependent M-NFS-60 mouse myeloid leukemia cell. The experiment can be described thus: M-NFS-60 cell proliferation assay (CellTiter-96). To be noted: Cytotoxicity, M-NFS-60 cells, 72 hours. The format is cell-based. In outline: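 Growth inhibition was measured as absorbance at 490 nm after 4 h with CellTiter 96 AQueous One reagent. Beforehand, M-NFS-60 cells (2000/well, CSF-1-dependent) were treated with a compound dilution series for 72 h following overnight plating at 37 °C, 5% CO2.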

Another experiment concerns the target PDGFRβ kinase (Homo sapiens (Human), UniProt P09619). The experiment can be described thus: PDGFRβ kinase assay (radiometric). The format is biochemical. In outline: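 Radiometric assay: recombinant PDGFRβ with poly(Glu4:Tyr1) in MOPS pH 7.0 buffer containing Mg2+/Mn2+, 10 μM ATP plus [33P]-ATP, and compound at 4% DMSO final. Incubated 60 min at 30° C, stopped with phosphoric acid, filter-captured and scintillation-counted. IC50 from curve fitting.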

Another experiment addresses FLT3 kinase (Homo sapiens (Human), UniProt P36888). The experiment is described as follows: FLT3 kinase assay (radiometric). The format is biochemical. The settings on record: bound. In outline: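 Recombinant FLT3 (5 ng) phosphorylating poly(Glu4:Tyr1) (2 μg) with 10 μM ATP plus [^33P]-ATP in MOPS pH 7.0 buffer, 4% DMSO final, 60 min at 30° C. Reaction stopped with phosphoric acid, filter-captured and scintillation-counted; IC50 derived from dose-response.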

Another experiment concerns the target c-KIT kinase (Homo sapiens (Human), UniProt P10721). The experiment is described as follows: c-KIT kinase assay (radiometric). To be noted: class symbol. In kind it is biochemical. In outline:
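Recombinant c-Kit (20 ng) with 2 μg Poly-(Glu4:Tyr1) in MOPS pH 7.0 buffer with MgCl2/MnCl2, 10 μM ATP plus [^33P]-ATP, 4% DMSO final, 60 min at 30° C. Stopped with phosphoric acid, filter-captured and scintillation counted; IC50 from curve fit.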

The subject of experiment [3] is osteoclast precursors (osteoclast differentiation). The experiment can be described thus: Osteoclast tartrate-resistant acid phosphatase assay. The format is cell-based. To be noted: 168 h, at 1 μM treatment, 7 days, RANKL and M-CSF, read-out: inhibition activity against osteoclast differentiation. In outline:
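Differentiation inhibition was scored at 1 μM compound in duplicate, using supernatant TRAP activity read at 550 nm with an acid phosphatase kit.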

In experiment [4] the test system is THP-1 human acute monocytic leukemia cell harboring NRAS G12D mutation. The experiment is described as follows: THP-1 cell proliferation assay (counter screen, CellTiter-96). In kind it is cell-based. The settings on record: Cytotoxicity, THP-1 cells (counter screen), 72 hours. In outline: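 Growth inhibition read as 490 nm absorbance after 4 h with CellTiter96 AQueous One reagent, following 72 h compound exposure at rising concentrations. THP-1 (NRAS G12D) cells plated at 5000 per well and left overnight at 37 °C, 5% CO2 before dosing.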
On the technique in general: The purpose of a counterscreen is to sort out artefacts and off-target activity.

The next experiment has as its target CSF-1R kinase (Homo sapiens (Human), UniProt P07333). The experiment is described as follows: CSF-1R kinase assay (AlphaScreen). To be noted: class symbol. In kind it is biochemical. The protocol:
Inhibition of CSF-1R kinase activity by a test compound disclosed herein was estimated by AlphaScreen (PerkinElmer). […] Reactions were incubated at 30° C. for 45 min and stopped by adding 5 μL of 50 mM EDTA. Analysis of resulting product using an AlphaScreen kit, and counted with Enspire Alpha (PerkinElmer). […] The IC50 values of quinoxaline compounds of this invention against CSF-1R kinase were determined using the GraphPad Prism 5 software.
In general terms: Alpha assays give light when donor and acceptor beads are brought close together.

The subject of experiment [5] is Kasumi-1 human acute myeloid leukemia cell with c-KIT N822K activating mutation. The experiment is described as follows: Kasumi-1 cell proliferation assay (CellTiter-96). In kind it is cell-based. The settings on record: Cytotoxicity, Kasumi-1 cells, 72 hours. In outline: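 After 72 h of treatment with a compound dilution series, growth of c-KIT N822K-driven Kasumi-1 cells (64000 per well, plated the day before) was read as 490 nm absorbance. This followed a 4 h incubation with CellTiter96 AQueous One reagent.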

Molecules are shown by their SMILES.

Chain of PDGFRβ kinase (P09619 33-1106): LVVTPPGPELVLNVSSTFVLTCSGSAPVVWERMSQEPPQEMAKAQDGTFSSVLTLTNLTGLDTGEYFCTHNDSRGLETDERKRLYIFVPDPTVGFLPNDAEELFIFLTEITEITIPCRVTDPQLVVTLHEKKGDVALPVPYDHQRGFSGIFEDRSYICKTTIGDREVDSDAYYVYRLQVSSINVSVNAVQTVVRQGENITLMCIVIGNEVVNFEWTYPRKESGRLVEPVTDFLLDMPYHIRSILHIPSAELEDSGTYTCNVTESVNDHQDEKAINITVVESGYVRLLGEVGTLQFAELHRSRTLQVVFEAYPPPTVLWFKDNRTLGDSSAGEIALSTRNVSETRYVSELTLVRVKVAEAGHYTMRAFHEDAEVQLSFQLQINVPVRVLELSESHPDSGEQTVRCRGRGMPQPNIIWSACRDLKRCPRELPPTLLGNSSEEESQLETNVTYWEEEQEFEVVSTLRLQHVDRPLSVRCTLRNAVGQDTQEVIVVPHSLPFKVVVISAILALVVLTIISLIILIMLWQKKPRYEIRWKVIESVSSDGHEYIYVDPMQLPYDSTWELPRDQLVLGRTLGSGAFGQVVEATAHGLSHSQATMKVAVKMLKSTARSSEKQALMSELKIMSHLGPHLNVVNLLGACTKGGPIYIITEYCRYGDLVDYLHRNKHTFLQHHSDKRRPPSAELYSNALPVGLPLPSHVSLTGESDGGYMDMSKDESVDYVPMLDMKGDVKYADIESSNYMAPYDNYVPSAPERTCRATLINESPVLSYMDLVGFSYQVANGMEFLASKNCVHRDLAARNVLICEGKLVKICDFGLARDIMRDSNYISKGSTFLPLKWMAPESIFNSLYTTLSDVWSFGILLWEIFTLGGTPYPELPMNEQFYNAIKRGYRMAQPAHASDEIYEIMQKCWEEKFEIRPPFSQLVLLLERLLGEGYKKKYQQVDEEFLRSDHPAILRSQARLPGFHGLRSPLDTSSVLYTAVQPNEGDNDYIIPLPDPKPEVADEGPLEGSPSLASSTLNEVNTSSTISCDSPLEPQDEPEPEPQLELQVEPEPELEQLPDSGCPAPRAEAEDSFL
Chain of c-KIT kinase (P10721 26-976): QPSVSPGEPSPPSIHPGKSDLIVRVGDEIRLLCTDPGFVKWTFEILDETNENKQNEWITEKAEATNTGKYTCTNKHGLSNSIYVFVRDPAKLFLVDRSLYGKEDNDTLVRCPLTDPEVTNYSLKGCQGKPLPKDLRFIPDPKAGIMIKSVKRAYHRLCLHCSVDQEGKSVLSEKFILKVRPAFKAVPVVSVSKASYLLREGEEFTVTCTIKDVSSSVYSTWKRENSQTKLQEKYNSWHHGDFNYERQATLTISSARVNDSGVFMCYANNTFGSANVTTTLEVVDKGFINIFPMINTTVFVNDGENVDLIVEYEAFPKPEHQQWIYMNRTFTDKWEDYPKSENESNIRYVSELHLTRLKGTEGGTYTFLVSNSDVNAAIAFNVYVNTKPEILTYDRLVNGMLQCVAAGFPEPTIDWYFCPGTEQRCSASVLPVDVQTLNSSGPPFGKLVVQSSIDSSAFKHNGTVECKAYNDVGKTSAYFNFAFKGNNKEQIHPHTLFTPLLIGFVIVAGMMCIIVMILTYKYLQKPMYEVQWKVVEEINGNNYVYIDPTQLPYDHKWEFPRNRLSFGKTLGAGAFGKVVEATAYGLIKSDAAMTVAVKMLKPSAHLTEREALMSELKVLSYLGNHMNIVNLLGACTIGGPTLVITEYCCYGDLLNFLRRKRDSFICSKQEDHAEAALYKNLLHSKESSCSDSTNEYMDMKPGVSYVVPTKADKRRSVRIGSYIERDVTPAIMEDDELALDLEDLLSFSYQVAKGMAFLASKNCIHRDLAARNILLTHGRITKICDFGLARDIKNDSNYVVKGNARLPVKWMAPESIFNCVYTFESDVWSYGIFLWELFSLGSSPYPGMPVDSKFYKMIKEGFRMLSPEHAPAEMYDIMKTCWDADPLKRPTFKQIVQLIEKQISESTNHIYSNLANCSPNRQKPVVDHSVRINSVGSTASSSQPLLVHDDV
Chain of CSF-1R kinase (P07333 20-972): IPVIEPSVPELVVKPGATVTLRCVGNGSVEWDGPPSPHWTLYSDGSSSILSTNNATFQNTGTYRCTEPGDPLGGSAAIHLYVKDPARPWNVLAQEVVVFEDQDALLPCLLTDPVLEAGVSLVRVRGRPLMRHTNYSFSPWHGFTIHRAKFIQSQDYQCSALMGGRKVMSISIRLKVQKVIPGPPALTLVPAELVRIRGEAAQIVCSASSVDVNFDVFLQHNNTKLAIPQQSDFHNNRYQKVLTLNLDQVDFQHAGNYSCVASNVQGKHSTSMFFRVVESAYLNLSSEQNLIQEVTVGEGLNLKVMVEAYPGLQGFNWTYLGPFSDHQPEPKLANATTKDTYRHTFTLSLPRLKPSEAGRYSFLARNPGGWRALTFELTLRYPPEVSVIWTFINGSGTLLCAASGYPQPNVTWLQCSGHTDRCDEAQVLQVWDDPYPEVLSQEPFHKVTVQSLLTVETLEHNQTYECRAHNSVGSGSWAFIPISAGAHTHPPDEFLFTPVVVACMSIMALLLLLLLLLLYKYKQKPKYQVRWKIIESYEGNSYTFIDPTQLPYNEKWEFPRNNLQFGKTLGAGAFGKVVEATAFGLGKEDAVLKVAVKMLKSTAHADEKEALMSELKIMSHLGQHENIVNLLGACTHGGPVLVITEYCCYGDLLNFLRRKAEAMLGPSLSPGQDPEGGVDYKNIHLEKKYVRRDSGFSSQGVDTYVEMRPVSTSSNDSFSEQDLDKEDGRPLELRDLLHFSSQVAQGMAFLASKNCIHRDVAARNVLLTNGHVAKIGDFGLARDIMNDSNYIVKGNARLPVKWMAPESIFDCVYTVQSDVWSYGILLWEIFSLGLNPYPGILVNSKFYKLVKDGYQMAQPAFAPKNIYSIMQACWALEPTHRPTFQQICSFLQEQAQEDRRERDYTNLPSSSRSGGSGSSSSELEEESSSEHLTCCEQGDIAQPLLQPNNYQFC
Chain of FLT3 kinase (P36888 27-993): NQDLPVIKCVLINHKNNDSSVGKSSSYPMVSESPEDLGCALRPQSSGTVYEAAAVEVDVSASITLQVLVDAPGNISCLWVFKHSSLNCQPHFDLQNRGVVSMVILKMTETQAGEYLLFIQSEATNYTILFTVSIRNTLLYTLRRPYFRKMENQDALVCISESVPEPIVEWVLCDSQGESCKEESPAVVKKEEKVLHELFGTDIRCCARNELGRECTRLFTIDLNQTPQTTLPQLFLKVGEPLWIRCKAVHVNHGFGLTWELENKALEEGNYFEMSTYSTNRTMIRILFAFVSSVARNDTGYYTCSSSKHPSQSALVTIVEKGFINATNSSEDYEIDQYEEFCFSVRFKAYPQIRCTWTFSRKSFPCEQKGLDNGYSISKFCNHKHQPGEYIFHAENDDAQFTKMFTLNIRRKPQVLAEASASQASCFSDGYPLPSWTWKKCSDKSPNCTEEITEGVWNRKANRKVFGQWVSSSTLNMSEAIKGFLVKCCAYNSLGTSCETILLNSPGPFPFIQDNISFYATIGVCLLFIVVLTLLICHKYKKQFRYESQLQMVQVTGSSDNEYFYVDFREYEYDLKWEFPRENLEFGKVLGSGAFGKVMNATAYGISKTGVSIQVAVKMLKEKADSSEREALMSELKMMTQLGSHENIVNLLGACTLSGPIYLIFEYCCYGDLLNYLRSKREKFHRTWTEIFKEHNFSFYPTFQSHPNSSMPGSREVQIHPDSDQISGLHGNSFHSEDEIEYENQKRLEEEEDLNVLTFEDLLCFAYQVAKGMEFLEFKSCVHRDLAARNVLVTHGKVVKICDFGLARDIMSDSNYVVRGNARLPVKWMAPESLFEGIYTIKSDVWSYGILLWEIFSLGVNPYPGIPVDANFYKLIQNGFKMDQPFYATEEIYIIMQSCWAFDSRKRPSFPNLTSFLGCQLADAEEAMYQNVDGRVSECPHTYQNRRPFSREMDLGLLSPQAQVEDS

`COc1ccc(COc2ccc(Nc3ccc4ncc(N5CCOCC5)nc4c3C#N)cc2OC)cc1F` [Example 93, 6-((4-((3-fluoro-4-methoxybenzyl)oxy)-3-methoxy-phenyl)amino)-3-morpholinoquinoxaline-5-carbonitrile]: the IC50 in experiment [1] is greater than 10000 nM; in [2] it was less than 300 nM; against PDGFRβ kinase (bound) it was greater than 1000 nM; against FLT3 kinase, greater than 1000 nM; against c-KIT kinase, less than 100 nM; in experiment [4], greater than 10000 nM. In addition, the IC50 was less than 100 nM at CSF-1R kinase and less than 300 nM in experiment [5]. Moreover, the inhibition at 1 µM in experiment [3] was greater than 50%.
Regarding `COc1ccc(COc2ccc(Nc3ccc4ncc(N5CCC5)nc4c3C#N)cc2OC)cc1` [Example 83, 3-(azetidin-1-yl)-6-((3-methoxy-4-((4-methoxybenzyl)oxy)phenyl)amino)quinoxaline-5-carbonitrile], the IC50 is greater than 10000 nM in experiment [1]; less than 300 nM in experiment [2]; greater than 1000 nM against PDGFRβ kinase (bound); greater than 1000 nM against FLT3 kinase; less than 100 nM at c-KIT kinase; greater than 10000 nM in [4]. Further, the 50% inhibitory concentration (IC50) on CSF-1R kinase is less than 100 nM; in experiment [5], less than 300 nM. Further, the inhibition at 1 µM in [3] was greater than 50%.
With `COc1ccc(COc2ccc(Nc3ccc4ncc(N5CCOCC5)nc4c3C#N)cc2F)cc1` [Example 56, 6-((3-fluoro-4-((4-methoxybenzyl)oxy)phenyl)amino)-3-morpholinoquinoxaline-5-carbonitrile], the IC50 in experiment [1] was 300 to 1000 nM; in experiment [2], 300 to 1000 nM; on PDGFRβ kinase (bound), greater than 1000 nM; at FLT3 kinase it was greater than 1000 nM; against c-KIT kinase, 100 to 300 nM; in experiment [4], greater than 10000 nM. Besides, the IC50 against CSF-1R kinase was less than 100 nM; in experiment [5], 1000 to 10000 nM. Besides, the inhibition at 1 µM in [3] was greater than 50%.
As to `COCCN1CCN(c2cnc3ccc(Nc4ccc(OCc5ccc(C)nc5)c(OC)c4)c(C#N)c3n2)CC1` [Example 100, 6-((3-methoxy-4-((6-methylpyridin-3-yl)methoxy)phenyl)amino)-3-(4-(2-methoxyethyl)piperazin-1-yl)quinoxaline-5-carbonitrile], the IC50 in experiment [1] is 1000 to 10000 nM; in [2], less than 300 nM; on PDGFRβ kinase (bound) it was greater than 1000 nM; against FLT3 kinase, greater than 1000 nM; on c-KIT kinase, 100 to 300 nM; in [4], greater than 10000 nM. For the same compound, the IC50 against CSF-1R kinase is less than 100 nM; in [5] it was 300 to 1000 nM. Moreover, in [3], the inhibition at 1 µM is greater than 50%.
On to `COc1ccc(COc2ccc(Nc3ccc4ncc(N5CCCC5)nc4c3C#N)cc2OC)cc1` [Example 62, 6-((3-methoxy-4-((4-methoxybenzyl)oxy)phenyl)amino)-3-(pyrrolidin-1-yl)quinoxaline-5-carbonitrile], for which the IC50 in experiment [1] is greater than 10000 nM; in experiment [2], less than 300 nM; on PDGFRβ kinase (class symbol) it was 300 to 1000 nM; on FLT3 kinase, greater than 1000 nM; on c-KIT kinase it was less than 100 nM; in [4], greater than 10000 nM. The IC50 is less than 100 nM against CSF-1R kinase and less than 300 nM in [5]. Further, the inhibition at 1 µM in [3] was greater than 50%.
For `COc1ccc(COc2ccc(Nc3ccc4ncc(N5CCN(CCOC(C)=O)CC5)nc4c3C#N)cc2OC)cn1` [Example 74, 2-(4-(8-cyano-7-((3-methoxy-4-((6-methoxypyridin-3-yl)methoxy)phenyl)amino)quinoxalin-2-yl)piperazin-1-yl)ethyl acetate], the IC50 in [1] is 1000 to 10000 nM; in experiment [2] it was less than 300 nM; at PDGFRβ kinase (bound), greater than 1000 nM; against FLT3 kinase it was greater than 1000 nM; on c-KIT kinase, less than 100 nM; in experiment [4], greater than 10000 nM. The IC50 was less than 100 nM against CSF-1R kinase and 300 to 1000 nM in [5]. Moreover, the inhibition at 1 µM in [3] is greater than 50%.
As to `CCc1ccc(COc2ccc(Nc3ccc4ncc(N5CCOCC5)nc4c3C#N)cc2OC)cc1` [Example 33, 6-((4-((4-ethylbenzyl)oxy)-3-methoxyphenyl)amino)-3-morpholinoquinoxaline-5-carbonitrile], the IC50 was 1000 to 10000 nM in [1]; less than 300 nM in experiment [2]; 100 to 300 nM against PDGFRβ kinase (class symbol); greater than 1000 nM against FLT3 kinase; less than 100 nM against c-KIT kinase; greater than 10000 nM in [4]. The IC50 against CSF-1R kinase is less than 100 nM; in [5], less than 300 nM. Also, the inhibition at 1 µM in experiment [3] was greater than 50%.
For `CCn1cc(COc2ccc(Nc3ccc4ncc(N5CCOCC5)nc4c3C#N)cc2OC)cn1` [Example 116, 6-((3-methoxy-4-((1-ethyl-1H-pyrazol-4-yl)methoxy)phenyl)amino)-3-morpholinoquinoxaline-5-carbonitrile], the IC50 was 1000 to 10000 nM in experiment [1]; less than 300 nM in experiment [2]; greater than 1000 nM against PDGFRβ kinase (bound); greater than 1000 nM on FLT3 kinase; 100 to 300 nM against c-KIT kinase; greater than 10000 nM in experiment [4]. Also, the values for the concentration for half-maximal inhibition (IC50) (on CSF-1R kinase; in [5]) were less than 100 nM and 300 to 1000 nM, respectively. In experiment [3], the inhibition at 1 µM is greater than 50%.
As for `COCCN1CCN(c2cnc3ccc(Nc4ccc(OCc5ccc(OC)nc5)c(OC)c4)c(C#N)c3n2)CC1` [Example 97, 6-((3-methoxy-4-((6-methoxypyridin-3-yl)methoxy)phenyl)amino)-3-(4-(2-methoxyethyl)piperazin-1-yl)quinoxaline-5-carbonitrile], the IC50 in experiment [1] is 1000 to 10000 nM; in experiment [2] it was less than 300 nM; against PDGFRβ kinase (bound), greater than 1000 nM; against FLT3 kinase, greater than 1000 nM; at c-KIT kinase, 100 to 300 nM; in experiment [4], greater than 10000 nM. Further, the IC50 is less than 100 nM on CSF-1R kinase and 300 to 1000 nM in experiment [5]. Further, the inhibition at 1 µM in experiment [3] is greater than 50%.
Consider `COc1cc(Nc2ccc3ncc(N4CCOCC4)nc3c2C#N)ccc1OCc1ccccc1` [Example 88, 6-((4-(benzyloxy)-3-methoxyphenyl)amino)-3-morpholinoquinoxaline-5-carbonitrile], for which the IC50 in experiment [1] was 1000 to 10000 nM; in experiment [2], less than 300 nM; against PDGFRβ kinase (bound), greater than 1000 nM; on FLT3 kinase, greater than 1000 nM; against c-KIT kinase, less than 100 nM; in [4], greater than 10000 nM. The IC50 was less than 100 nM against CSF-1R kinase and 300 to 1000 nM in experiment [5]. Besides, the inhibition at 1 µM in experiment [3] was greater than 50%.
Regarding `COc1cc(Nc2ccc3ncc(N4CCOCC4)nc3c2C#N)ccc1OCc1cnn(CCF)c1` [Example 131, 6-((4-((1-(2-fluoroethyl)-1H-pyrazol-4-yl)methoxy)-3-methoxyphenyl)amino)-3-morpholinoquinoxaline-5-carbonitrile], the IC50 is greater than 10000 nM in experiment [1]; less than 300 nM in experiment [2]; greater than 1000 nM against PDGFRβ kinase (bound); greater than 1000 nM on FLT3 kinase; 300 to 1000 nM against c-KIT kinase; greater than 10000 nM in [4]. Moreover, the results for the IC50 (on CSF-1R kinase; in experiment [5]) were less than 100 nM and greater than 10000 nM, respectively. Further, in experiment [3], the inhibition at 1 µM is greater than 50%.
Take `COc1ccc(COc2ccc(Oc3ccc4ncc(N5CCOCC5)nc4c3C#N)cc2OC)cc1` [Example 27, 6-(3-methoxy-4-((4-methoxybenzyl)oxy)phenoxy)-3-morpholinoquinoxaline-5-carbonitrile]: the concentration for half-maximal inhibition (IC50) was greater than 10000 nM in [1]; less than 300 nM in experiment [2]; greater than 1000 nM on PDGFRβ kinase (bound); greater than 1000 nM against FLT3 kinase; 100 to 300 nM on c-KIT kinase; greater than 10000 nM in experiment [4]. Also, the IC50 was less than 100 nM on CSF-1R kinase and less than 300 nM in experiment [5]. Besides, in experiment [3], the inhibition at 1 µM was greater than 50%.

The IC50 is the midpoint of a concentration-inhibition curve. Low readings indicate greater potency in that assay, high ones weaker potency in that assay. Broadly, the inhibition is the drop in the measured response relative to a control, in per cent.

Source of the values: US10689362B2, “Quinoxaline compounds as type III receptor tyrosine kinase inhibitors” (Development Center for Biotechnology, priority 2016, dated 2020).
